We go through 16 molecules from patent US20260217708A1, “FUSED BENZAZEPINE DERIVATIVES FOR USE IN THE TREATMENT OF CANCER AND EPILEPSY” (UCB BIOPHARMA SRL, priority 2023, published 2026).

Each structure is given as a SMILES string.

Assay [1] addresses T1, system Xc^− (Homo sapiens, UniProt Q9UPY5).
T1 sequence (Q9UPY5 1-501): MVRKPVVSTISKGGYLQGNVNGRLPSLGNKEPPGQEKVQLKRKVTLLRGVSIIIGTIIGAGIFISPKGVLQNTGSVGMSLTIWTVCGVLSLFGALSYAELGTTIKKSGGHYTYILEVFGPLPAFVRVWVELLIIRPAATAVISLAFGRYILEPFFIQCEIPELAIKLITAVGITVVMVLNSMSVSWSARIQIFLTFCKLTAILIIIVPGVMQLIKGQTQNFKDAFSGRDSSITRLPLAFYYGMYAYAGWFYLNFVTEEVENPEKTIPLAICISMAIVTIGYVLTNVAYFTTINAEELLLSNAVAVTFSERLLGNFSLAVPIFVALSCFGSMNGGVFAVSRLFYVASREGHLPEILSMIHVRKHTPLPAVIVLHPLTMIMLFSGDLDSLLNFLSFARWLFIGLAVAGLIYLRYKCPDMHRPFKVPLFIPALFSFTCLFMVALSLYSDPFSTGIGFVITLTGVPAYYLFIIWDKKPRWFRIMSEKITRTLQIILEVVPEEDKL
T1 sequence (P08195 1-529 partner): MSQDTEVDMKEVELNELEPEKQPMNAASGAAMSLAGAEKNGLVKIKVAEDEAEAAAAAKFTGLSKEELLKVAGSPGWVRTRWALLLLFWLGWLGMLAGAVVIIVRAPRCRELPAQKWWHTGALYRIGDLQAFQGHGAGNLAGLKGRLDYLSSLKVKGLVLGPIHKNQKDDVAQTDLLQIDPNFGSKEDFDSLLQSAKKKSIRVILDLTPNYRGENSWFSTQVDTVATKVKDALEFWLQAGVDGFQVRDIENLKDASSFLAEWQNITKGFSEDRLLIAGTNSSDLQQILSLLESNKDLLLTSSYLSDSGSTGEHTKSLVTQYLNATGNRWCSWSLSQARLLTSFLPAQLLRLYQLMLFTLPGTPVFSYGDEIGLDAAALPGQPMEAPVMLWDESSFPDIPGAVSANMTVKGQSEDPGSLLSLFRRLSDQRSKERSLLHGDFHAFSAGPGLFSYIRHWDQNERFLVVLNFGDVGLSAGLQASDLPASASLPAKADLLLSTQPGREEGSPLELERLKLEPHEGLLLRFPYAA
The experiment in a line: [^14C]L-Cystine uptake assay. To be noted: H4 cells, sodium-free HEPES buffer, 0.5 μM L-[14C]Cystine and 4.5 μM L-Cystine, 1 hour at 37° C.; read-out: pIC50 [^14C] L-Cystine uptake assay (converted). The format is cell-based. Further details: endogenous in cells; host or cells: H4 cells. The text has this:
(§1) The effect of compounds of Formula (I) on the system Xc^− functionality was examined in two independent cell assays: (i) measurement of cystine-induced glutamate release; and (ii) measurement of [^14C]L-Cystine uptake.
(§2) As described above, System Xc^−, also known as the cystine/glutamate antiporter, is an amino acid transporter that mediates the extrusion of intracellular L-glutamate outside the cell and the uptake of extracellular L-cystine into the cell.
(§3) By measuring respectively, the concentration of glutamate released outside the cell and the L-cystine uptaken in the cell, with increasing concentrations of compounds of formula (I) according to the present invention, the efficacy of said compounds to inhibit the System Xc^− function can be evaluated.
(§4) The efficacy of the compounds to inhibit system Xc^− is represented by measuring the IC50 which corresponds to the concentration of compound necessary to inhibit 50% of the signals from the two control groups; DMSO 1% and Erastin 50 μM in the respective assays. pIC50 values correspond to −log of the IC50 in Molar.
In this assay, the medium is devoid of sodium to prevent the transport of glutamate by sodium-dependent excitatory amino acid transporters (EAATs). H4 cells were plated on a 96-well CytoStar-T scintillating microplate (PerkinElmer) at 5×10^4 cells/well in the medium described above. After 1 day, cells were washed one time with the sodium-free HEPES buffer and preincubated with test compounds of Formula (I) (1% final DMSO) for 15 min. Uptake was initiated by adding 0.5 μM L-[1,2, 1′,2′-^14C]Cystine (0.02 mCi/mL, PerkinElmer, Waltham, US) and 4.5 μM L-Cystine (Sigma-Aldrich). After 1 hour at 37° C., plates were counted in a MicroBeta^2 microplate counter (PerkinElmer).

In assay [2] the target is T1, system Xc^−. The experiment in a line: Cystine-induced glutamate release assay. It counts as cell-based. Further details: endogenous in cells; host or cells: H4 cells. Conditions: H4 cells, sodium-free HEPES buffer, 50 μM L-Cystine, 2 hours, Amplex Red glutamate readout; read-out: pIC50 Cystine-induced glutamate release assay (converted).
Description: as §1, §2, §3, §4
Measurement of cystine-induced glutamate release indicates levels of glutamate (outside of the cell) that are dependent on system Xc^− antiporter function. Upon the addition of L-Cystine to H4 cells, intracellular glutamate is counter-transported and exported in the supernatant.
In this assay, the medium is devoid of sodium to prevent the transport of glutamate by sodium-dependent excitatory amino acid transporters (EAATs). H4 cells were plated on 384-well culture plate at 1×10^4 cells/well in Dulbecco's Modified Eagle Medium (DMEM) with L-glutamine, penicillin/streptomycin and 10% fetal bovine serum (all from ThermoFisher Scientific) and incubated in a humidified CO2 incubator at 37° C. After 2 days, cells were washed 4 times with prewarmed sodium-free HEPES buffer (contents in mM: HEPES 10, KCl 5.4, CaCl2 2.5, MgCl2 1, KH2PO4 0.4, D-Glucose 5, Choline chloride 140), pH 7.4. Glutamate release was induced by addition of 50 μM of L-Cystine (Sigma-Aldrich), together with a test compound of Formula (I) at 1% final DMSO concentration. After 2 hours of incubation in the culture incubator, supernatants were transferred to a low-binding polypropylene 384-well plate to determine L-glutamate concentration using Amplex™ Red Glutamic Acid Assay Kit (ThermoFisher Scientific). Briefly, 10 μL of Amplex™ Red working solution was added to 10 μL of the supernatant, then the mixture was incubated for 30 min at 37° C. Fluorescence intensity was measured by EnVision microplate reader (PerkinElmer).

As for `Cc1cc2c(c(O)n1)-c1ccccc1CC(=O)N2CC(=O)Nc1ccc(C(F)(F)F)cc1` [#55, 2-(1-hydroxy-3-methyl-6-oxo-7H-pyrido[4,3-d][3]benzazepin-5-yl)-N-[4-(trifluoromethyl)phenyl]acetamide], the IC50 in assay [1] was 0.1 to 0.501 µM; in assay [2], 0.0398 to 0.1 µM.

Regarding `Cc1cc2c(c(F)n1)-c1ccc(F)cc1CC(=O)N2CC(=O)Nc1ccc(C(F)(F)F)cc1` [#86, 2-(1,9-difluoro-3-methyl-6-oxo-7H-pyrido[4,3-d][3]benzazepin-5-yl)-N-[4-(trifluoromethyl)phenyl]acetamide], the results for the IC50 in assay [1] and in assay [2] were 0.0158 to 0.0398 µM and 0.0398 to 0.1 µM, respectively.

Turning to `Cc1cc2c(c(=O)n1C)-c1ccccc1C(C)C(=O)N2CC(=O)Nc1ccc(C(F)F)cc1` (single isomer, unassigned) [#175, N-[4-(difluoromethyl)phenyl]-2-(2,3,7-trimethyl-1,6-dioxo-7H-pyrido[4,3-d][3]benzazepin-5-yl)acetamide], the IC50 in assay [1] and in assay [2] was below 0.0158 µM each time.

As for `CC1C(=O)N(CC(=O)Nc2ccc(Cl)c(F)c2)c2cc(Cl)cc(F)c2-c2nccnc21` (single isomer, unassigned) [#414, 2-[9-chloro-11-fluoro-5-methyl-6-oxo-5H-pyrazino[2,3-d][1]benzazepin-7-yl]-N-(4-chloro-3-fluoro-phenyl)acetamide], the IC50 in assay [1] is 0.0158 to 0.0398 µM; in assay [2], 0.0398 to 0.1 µM.

Turning to `Cc1cc2c(c(=O)n1C)-c1ccc(F)cc1C(C)C(=O)N2CC(=O)Nc1ccc(C(F)F)cc1` (stereo not drawn) [#256, N-[4-(difluoromethyl)phenyl]-2-(9-fluoro-2,3,7-trimethyl-1,6-dioxo-7H-pyrido[4,3-d][3]benzazepin-5-yl)acetamide], the IC50 in assay [1] and in assay [2] was below 0.0158 µM throughout.

Regarding `Cc1cc2c(cc1C)N(CC(=O)Nc1ccc(Cl)c(F)c1)C(=O)Cc1ccncc1-2` [#2, N-(4-chloro-3-fluoro-phenyl)-2-(9,10-dimethyl-6-oxo-5H-pyrido[4,3-d][1]benzazepin-7-yl)acetamide], the IC50 in assay [1] was 0.0158 to 0.0398 µM; in assay [2] it was 0.1 to 0.501 µM.

As to `Cc1cc2c(c(C(F)F)n1)-c1ccccc1CC(=O)N2CC(=O)Nc1ccc(C(F)(F)F)cc1` [#56, 2-[1-(difluoromethyl)-3-methyl-6-oxo-7H-pyrido[4,3-d][3]benzazepin-5-yl]-N-[4-(trifluoromethyl)phenyl]acetamide], the IC50 in assay [1] and in assay [2] was 0.0398 to 0.1 µM each time.

For the molecule `COc1cc2c(c(Cl)n1)-c1ccnn1C(C)C(=O)N2CC(=O)Nc1ccc(Cl)c(F)c1` (single isomer, unassigned) [#387, N-(4-chloro-3-fluoro-phenyl)-2-[14-chloro-12-methoxy-7-methyl-8-oxo-5,6,9,13-tetrazatricyclo[8.4.0.0^2,6]tetradeca-1(10),2,4,11,13-pentaen-9-yl]acetamide], the IC50 in assay [1] and in assay [2] was 0.0158 to 0.0398 µM throughout.

Regarding `O=C(CN1C(=O)C(O)c2ncc(F)cc2-c2c(F)cc(F)cc21)Nc1ccc(C(F)F)cc1` (single isomer, unassigned) [#318, N-[4-(difluoromethyl)phenyl]-2-[2,9,11-trifluoro-5-hydroxy-6-oxo-5H-pyrido[2,3-d][1]benzazepin-7-yl]acetamide], the IC50 in assay [2] is below 0.0158 µM.

On to `O=C(CN1C(=O)Cc2cc(Cl)ccc2-c2c1cc(C1CC1)nc2Cl)Nc1ccc(C(F)F)cc1` [#340, 2-(1,9-dichloro-3-cyclopropyl-6-oxo-7H-pyrido[4,3-d][3]benzazepin-5-yl)-N-[4-(difluoromethyl)phenyl]acetamide], for which, in assay [2], the IC50 is 0.0398 to 0.1 µM.

Regarding `COc1ccc2c(c1)N(CC(=O)Nc1ccc(C(F)F)cc1)C(=O)C(C)c1ncccc1-2` (stereo not drawn) [#305, N-[4-(difluoromethyl)phenyl]-2-(9-methoxy-5-methyl-6-oxo-5H-pyrido[2,3-d][1]benzazepin-7-yl)acetamide], the IC50 in assay [2] is 0.0398 to 0.1 µM.

With `Cc1cc2c(c(F)n1)-c1cccnc1[C@@H](C)C(=O)N2CC(=O)Nc1cc(F)c(Cl)cc1F` [#245, N-(4-chloro-2,5-difluoro-phenyl)-2-[(10R)-3-fluoro-5,10-dimethyl-9-oxo-4,8,12-triazatricyclo[9.4.0.0^2,7]pentadeca-1(15),2,4,6,11,13-hexaen-8-yl]acetamide], the IC50 in assay [2] is 0.0158 to 0.0398 µM.

With `Cc1cc2c(c(C)n1)-c1ccc(C)nc1CC(=O)N2CC(=O)Nc1ccc(C(F)(F)F)cc1` [#70, N-[4-(trifluoromethyl)phenyl]-2-(3,5,13-trimethyl-9-oxo-4,8,12-triazatricyclo[9.4.0.0^2,7]pentadeca-1(11),2(7),3,5,12,14-hexaen-8-yl)acetamide], the IC50 in assay [2] was 0.0398 to 0.1 µM.

Turning to `CC1C(=O)N(CC(=O)Nc2ccc(C(F)F)cc2)c2cc(N3CC(F)(F)C3)nc(Cl)c2-c2cccnc21` (stereo not drawn) [#292, 2-[3-chloro-5-(3,3-difluoroazetidin-1-yl)-10-methyl-9-oxo-4,8,12-triazatricyclo[9.4.0.0^2,7]pentadeca-1(15),2,4,6,11,13-hexaen-8-yl]-N-[4-(difluoromethyl)phenyl]acetamide], the IC50 in assay [2] was below 0.0158 µM.

On to `CC1C(=O)N(CC(=O)Nc2ccc(C(F)F)cc2)c2cc(C(F)F)nc(Cl)c2-c2cccnc21` (stereo not drawn) [#338, 2-[3-chloro-5-(difluoromethyl)-10-methyl-9-oxo-4,8,12-triazatricyclo[9.4.0.0^2,7]pentadeca-1(11),2(7),3,5,12,14-hexaen-8-yl]-N-[4-(difluoromethyl)phenyl]acetamide], for which the IC50 in assay [2] was below 0.0158 µM.

`CC1C(=O)N(CC(=O)Nc2ccc(Cl)c(F)c2)c2cc(C3(F)CN(C)C3)nc(Cl)c2-c2cccnc21` (stereo not drawn) [#422, 2-[3-chloro-5-(3-fluoro-1-methyl-azetidin-3-yl)-10-methyl-9-oxo-4,8,12-triazatricyclo[9.4.0.0^2,7]pentadeca-1(11),2,4,6,12,14-hexaen-8-yl]-N-(4-chloro-3-fluoro-phenyl)acetamide]: in assay [2], the IC50 is 0.0158 to 0.0398 µM.
